From patent US12122762B2, “Crystal form a of NHE3 inhibitor, preparation method therefor and application thereof” (SHENZHEN RENTAI PHARMATECH LTD., priority 2019, dated 2024) come the findings set out here.

Common to all, as to type: physicochemical
Data set [1] in a line: Hygroscopicity of compound of formula (I) prepared according to CN103819403B. The settings on record: within 10 min under a humidity of RH 45%. An excerpt: The inventors of the present invention prepared the compound of formula (I) according to the preparation method as described in CN103819403B, and carried out analysis. […] Especially, the prepared compound of formula (I) was found easy to decompose in environment of high temperature or high humidity or under strong lights, causing rapid decrease in the content of active ingredients. […] Therefore, a strict management would be required during use of the compound of formula (I), rendering the compound unsuitable for use as a bulk pharmaceutical chemical.

Data set [2] can be described thus: Light stability (25° C., 4500 Lux), content by HPLC peak area normalization. As for the experimental part:
(§1) Follow tests are performed for the amorphous bulk pharmaceutical chemical of embodiment 1 and the crystal form A prepared in embodiment 2: • (1) Light stability: the test sample is placed in an environment having a temperature of 25° C. and a light condition of 4500 Lux for 5 days and 10 days, respectively, to test the stability of the crystal form. Samples are collected at the same point at 5th and 10th day to measure content by HPLC peak area normalization method. […] Samples are collected at the same point at 5th and 10th day to measure content by HPLC peak area normalization method. […] Samples are collected at the same point at 5th and 10th day to measure content by HPLC peak area normalization method.

Data set [3] in a line: High-temperature stability (60° C.), content by HPLC peak area normalization. As for the experimental part: as §1
Data set [4] can be described thus: High-humidity stability (75% RH, 40° C.), content by HPLC peak area normalization. As for the experimental part: as §1
Data set [5] can be described thus: Hygroscopicity study by dynamic vapor sorption (DVS). To be noted: 25° C. Here is the method: • Model: BRUKER D8 DISCOVER (BRUKER, Germany) • Method: Cu target Ka, voltage: 40 KV, current: 40 mA, test angle: 3-45°, scanning step: 0.02, exposure time: 0.2 S, slit width of light pipe: 1 mm, slit width of detector: 2.7 mm. X-Ray Single Crystal Diffractometer SXRD • Model: BRUKER D8 QUEST (BRUKER, Germany) • Method: Cu target, voltage: 40 KV, current: 30 mA Differential Scanning Calorimeter DSC • Model: TA 250 (TA Instruments, US) • Method: heating at a rate of 10° C./min. Thermal Gravimetric Analysis TGA • Model: TA 550 (TA Instruments, US); • Method: heating at a rate of 10° C./min. Dynamic Vapor Sorption DVS • Model: DVS intrinsic (SMS, British); • Method: 25° C., relative humidity is stepped up at a rate of 10% per step, and the judgment standard is change in moisture content is <0.002% over a 10-minute period. Light Incubator • Model: MGC-100 (Shanghai Yiheng Scientific Instrument Co., Ltd.) Ultrasound Equipment • Model: KQ-3200 (Shanghai Alloy Ultrasonic Equipment Co., Ltd.) Programmable Temperature and Humidity Chamber for Drug Stability • Model: CMA-100C (Shanghai Puhan Precision Equipment Co., Ltd.) […]

Consider `CN1Cc2c(Cl)cc(Cl)cc2[C@@H](c2cccc(S(=O)(=O)NCCOCCOCCNC(=O)NCCCCNC(=O)NCCOCCOCCNS(=O)(=O)c3cccc([C@@H]4CN(C)Cc5c(Cl)cc(Cl)cc54)c3)c2)C1` [compound of formula (I)], for which the “weight increase because of hygroscopicity” value in data set [1] is given as “up to 2%”.
Consider `CN1Cc2c(Cl)cc(Cl)cc2[C@@H](c2cccc(S(=O)(=O)NCCOCCOCCNC(=O)NCCCCNC(=O)NCCOCCOCCNS(=O)(=O)c3cccc([C@@H]4CN(C)Cc5c(Cl)cc(Cl)cc54)c3)c2)C1` [amorphous bulk pharmaceutical chemical], for which the “Purity (%) after light stability test” value in data set [2] (5 days) was found to be 72.54%; in data set [2] (10 days) it was 71.99%. For the same compound, the “Purity (%) after high-temperature stability test” value in data set [3] (5 days) was 61.62%; in data set [3] (10 days), 58.98%. Moreover, the results for the “Purity (%) after high-humidity stability test” value in data set [4] (5 days) and in data set [4] (10 days) were 81.63% and 79.78%, respectively. In addition, in data set [5] (RH 0 to RH 90%, RH 10% per step, 10 min per step), the “weight increase due to moisture absorption” value is reported as 7%.
With `CN1Cc2c(Cl)cc(Cl)cc2[C@@H](c2cccc(S(=O)(=O)NCCOCCOCCNC(=O)NCCCCNC(=O)NCCOCCOCCNS(=O)(=O)c3cccc([C@@H]4CN(C)Cc5c(Cl)cc(Cl)cc54)c3)c2)C1` [crystal form A], the “Purity (%) after light stability test” value in data set [2] (5 days) came out at 91.78%; in data set [2] (10 days), 89.07%. In addition, the entries for the “Purity (%) after high-temperature stability test” value in data set [3] (5 days) and in data set [3] (10 days) were 98.64% and 98.72%, respectively. For the same compound, the “Purity (%) after high-humidity stability test” value in data set [4] (5 days) came to 98.52%; in data set [4] (10 days) it was 98.56%. For the same compound, in data set [5] (each RH 10% step of 10 min), the “weight change in each step of 10 min” value is listed as “less than 0.02%”.
